Data: patent publication US20260125370A1, “SULFOXIMINE COMPOUNDS AS HISTONE DEACETYLASE 6 INHIBITOR, AND PHARMACEUTICAL COMPOSITION COMPRISING THE SAME” (CHONG KUN DANG PHARMACEUTICAL CORP., priority 2022, published 2026)

Legend:
human recombinant HDAC6 = molecular target: T1, human recombinant HDAC6 (Homo sapiens, UniProt Q9UBN7); experiment: HDAC6 enzyme activity inhibition (fluorimetric, in vitro); assay type: biochemical; details: samples at 0.1, 1, 10, 100 and 1000 nM
T1 construct: purchased Calbiochem 382180
T1 sequence (Q9UBN7 1-1215): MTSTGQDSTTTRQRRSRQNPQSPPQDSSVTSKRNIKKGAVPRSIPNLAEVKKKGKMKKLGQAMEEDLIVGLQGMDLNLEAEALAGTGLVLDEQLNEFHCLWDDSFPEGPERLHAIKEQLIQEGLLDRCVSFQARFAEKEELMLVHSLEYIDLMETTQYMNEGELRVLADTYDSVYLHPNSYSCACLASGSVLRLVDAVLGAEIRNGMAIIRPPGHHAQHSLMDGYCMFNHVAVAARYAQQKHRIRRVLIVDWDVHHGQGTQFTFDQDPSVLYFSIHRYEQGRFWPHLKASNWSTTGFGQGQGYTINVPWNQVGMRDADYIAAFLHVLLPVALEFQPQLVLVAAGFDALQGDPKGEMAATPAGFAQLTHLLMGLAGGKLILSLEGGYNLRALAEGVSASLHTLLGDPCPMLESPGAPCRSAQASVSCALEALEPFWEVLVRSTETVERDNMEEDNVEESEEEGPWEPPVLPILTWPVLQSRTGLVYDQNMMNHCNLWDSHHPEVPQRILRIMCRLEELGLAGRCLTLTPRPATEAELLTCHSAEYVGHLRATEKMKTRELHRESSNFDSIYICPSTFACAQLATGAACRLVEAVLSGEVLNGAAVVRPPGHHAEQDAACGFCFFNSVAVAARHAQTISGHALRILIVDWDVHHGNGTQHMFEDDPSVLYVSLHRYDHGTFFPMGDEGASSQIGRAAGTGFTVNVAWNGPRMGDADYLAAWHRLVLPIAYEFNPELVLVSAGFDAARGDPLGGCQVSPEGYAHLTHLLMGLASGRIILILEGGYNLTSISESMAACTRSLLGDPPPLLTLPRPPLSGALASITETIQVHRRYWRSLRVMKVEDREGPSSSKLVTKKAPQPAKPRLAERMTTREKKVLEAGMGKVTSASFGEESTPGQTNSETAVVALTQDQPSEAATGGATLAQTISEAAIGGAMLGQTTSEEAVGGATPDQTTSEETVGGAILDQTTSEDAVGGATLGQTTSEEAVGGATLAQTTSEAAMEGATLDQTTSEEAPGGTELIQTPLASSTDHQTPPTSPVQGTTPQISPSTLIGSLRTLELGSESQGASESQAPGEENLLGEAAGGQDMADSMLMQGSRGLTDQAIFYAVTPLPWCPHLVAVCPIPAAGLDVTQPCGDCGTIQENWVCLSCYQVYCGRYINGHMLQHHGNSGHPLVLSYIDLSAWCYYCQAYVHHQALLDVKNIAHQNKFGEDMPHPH
Protocol: (§1) A HDAC enzyme inhibitory capacity of a test material was measured by using HDAC1 Fluorimetric Drug Discovery Assay Kit (Enzolifesciences: BML-AK511) and HDAC6 human recombinant (Calbiochem: 382180). For a HDAC1 assay, samples were treated at a concentration of 100, 1000 and 10000 nM. For a HDAC6 assay, samples were treated at a concentration of 0.1, 1, 10, 100 and 1000 nM.
(§2) For the test on the HDAC1 enzyme activity, human recombinant HDAC1 (BML-SE456) was used as a zymogen and Fluor de Lys®-SIRT1 (BNL-KI177) was used as a substrate. A 5-fold dilution of the compound was divided into a 96-well plate, after which 0.3 μg of the enzyme and […] of the substrate were inserted into each well and subjected to reaction at 37° C. for 60 minutes, such that Fluor de Lys® Developer II (BML-K1176) was inserted thereinto and subjected to reaction for 30 minutes and finished. After that, a fluorescence value (Ex 360, Em 460) was measured with a multi-plate reader (FlexStation 3, Molecular Device). An experiment on HDAC6 enzyme was conducted in accordance with the same protocol as in the HDAC1 enzyme activity test method by using human recombinant HDAC6 (382180) of Calbiochem Inc. For final result values, each IC50 value was calculated with GraphPad Prism 4.0 program.

human recombinant HDAC1 = molecular target: T2, human recombinant HDAC1 (Homo sapiens, UniProt Q13547); experiment: HDAC1 enzyme activity inhibition (HDAC1 Fluorimetric Drug Discovery Assay Kit, in vitro); assay type: biochemical; details: samples at 100, 1000 and 10000 nM
T2 construct: purchased Enzolifesciences BML-SE456
Protocol: as §1, §2

T2 sequence (Q13547 whole entry): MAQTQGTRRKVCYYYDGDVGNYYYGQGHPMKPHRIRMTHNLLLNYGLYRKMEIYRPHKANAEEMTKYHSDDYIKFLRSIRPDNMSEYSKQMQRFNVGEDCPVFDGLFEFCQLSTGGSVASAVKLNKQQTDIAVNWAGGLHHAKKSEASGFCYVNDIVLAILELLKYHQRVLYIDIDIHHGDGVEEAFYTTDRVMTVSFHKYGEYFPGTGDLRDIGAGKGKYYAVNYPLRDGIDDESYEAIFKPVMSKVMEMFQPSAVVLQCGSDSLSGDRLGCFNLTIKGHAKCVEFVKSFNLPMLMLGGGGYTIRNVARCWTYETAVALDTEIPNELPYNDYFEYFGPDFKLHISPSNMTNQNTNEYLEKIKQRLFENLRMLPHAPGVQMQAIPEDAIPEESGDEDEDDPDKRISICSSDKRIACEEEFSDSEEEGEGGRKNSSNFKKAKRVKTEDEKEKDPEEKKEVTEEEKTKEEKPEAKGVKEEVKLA

## N=S1(=O)CCN(C(=O)N(Cc2ccc(-c3nnc(C(F)F)o3)cc2F)c2ccccc2)CC1 [Compound 1, N-(4-(5-(difluoromethyl)-1,3,4-oxadiazol-2-yl)-2-fluorobenzyl)-1-imino-N-phenylthiomorpholin-4-carboxamide 1-oxide]
Human recombinant HDAC6
  IC50: 0.0494 µM
Human recombinant HDAC1
  IC50: > 10 µM

## O=C(N1CCS(=O)(=NC(=O)C(F)(F)F)CC1)N(Cc1ccc(-c2nnc(C(F)F)o2)cn1)c1ccccc1 [Compound 2, N-((5-(5-(difluoromethyl)-1,3,4-oxadiazol-2-yl)pyridin-2-yl)methyl)-N-phenyl-1-((2,2,2-trifluoroacetyl)imino)thiomorpholin-4-carboxamide 1-oxide]
Human recombinant HDAC6
  IC50: 0.168 µM
Human recombinant HDAC1
  IC50: > 10 µM

## N=S1(=O)CCN(C(=O)N(Cc2ccc(-c3nnc(C(F)F)o3)cn2)c2ccccc2)CC1 [Compound 3, N-((5-(5-(difluoromethyl)-1,3,4-oxadiazol-2-yl)pyridin-2-yl)methyl)-1-imino-N-phenylthiomorpholin-4-carboxamide 1-oxide]
Human recombinant HDAC6
  IC50: 0.151 µM
Human recombinant HDAC1
  IC50: > 10 µM

## O=C(N=S1(=O)CCN(C(=O)N(Cc2ccc(-c3nnc(C(F)F)o3)cc2F)c2ccccc2)CC1)OCc1ccccc1 [Compound 4, Benzyl (4-((4-(5-(difluoromethyl)-1,3,4-oxadiazol-2-yl)-2-fluorobenzyl)(phenyl)carbamoyl)-1-oxidothiomorpholin-1-ylidene)carbamate]
Human recombinant HDAC6
  IC50: 0.39 µM
Human recombinant HDAC1
  IC50: > 10 µM

## O=C(N=S1(=O)CCN(C(=O)N(Cc2ccc(-c3nnc(C(F)F)o3)cn2)c2ccccc2)CC1)OCc1ccccc1 [Compound 5, Benzyl (4-(((5-(5-(difluoromethyl)-1,3,4-oxadiazol-2-yl)pyridin-2-yl)methyl)(phenyl)carbamoyl)-1-oxidothiomorpholin-1-ylidene)carbamate]
Human recombinant HDAC6
  IC50: 0.0914 µM
Human recombinant HDAC1
  IC50: > 10 µM

## N=S1(=O)CCN(C(=O)N(Cc2ccc(-c3nnc(C(F)F)o3)cc2F)c2ccc(F)c(F)c2)CC1 [Compound 6, N-(4-(5-(difluoromethyl)-1,3,4-oxadiazol-2-yl)-2-fluorobenzyl)-N-(3,4-difluorophenyl)-1-iminothiomorpholin-4-carboxamide 1-oxide]
Human recombinant HDAC6
  IC50: 0.05 µM
Human recombinant HDAC1
  IC50: > 10 µM

## N=S1(=O)CCN(C(=O)N(Cc2ccc(-c3nnc(C(F)F)o3)cn2)c2ccc(F)c(F)c2)CC1 [Compound 7, N-((5-(5-(difluoromethyl)-1,3,4-oxadiazol-2-yl)pyridin-2-yl)methyl)-N-(3,4-difluorophenyl)-1-iminothiomorpholin-4-carboxamide 1-oxide]
Human recombinant HDAC6
  IC50: 0.0409 µM
Human recombinant HDAC1
  IC50: > 10 µM

## N=S1(=O)CCC(C(=O)N(Cc2ccc(-c3nnc(C(F)F)o3)cc2F)c2ccccc2)CC1 (stereo not drawn) [Compound 8, N-(4-(5-(difluoromethyl)-1,3,4-oxadiazol-2-yl)-2-fluorobenzyl)-1-imino-N-phenyltetrahydro-2H-thiopyran-4-carboxamide 1-oxide]
Human recombinant HDAC6
  IC50: 0.194 µM
Human recombinant HDAC1
  IC50: > 10 µM

## N=S1(=O)CCN(C(=O)N(Cc2ccc(-c3nnc(C(F)(F)F)o3)cn2)c2ccccc2)CC1 [Compound 9, 1-imino-N-phenyl-N-((5-(5-(trifluoromethyl)-1,3,4-oxadiazol-2-yl)pyridin-2-yl)methyl)thiomorpholine-4-carboxamide 1-oxide]
Human recombinant HDAC6
  IC50: 0.28 µM
Human recombinant HDAC1
  IC50: > 10 µM

## Cn1ccc2cc(N(Cc3ccc(-c4nnc(C(F)F)o4)cc3F)C(=O)N3CCS(=N)(=O)CC3)ccc21 [Compound 10, N-(4-(5-(difluoromethyl)-1,3,4-oxadiazol-2-yl)-2-fluorobenzyl)-1-imino-N-(1-methyl-1H-indol-5-yl)thiomorpholin-4-carboxamide 1-oxide]
Human recombinant HDAC6
  IC50: 0.108 µM
Human recombinant HDAC1
  IC50: > 10 µM

## N=S1(=O)CC(N2C[C@@H]3C[C@H]2CN3c2c(N(Cc3ncc(-c4nnc(C(F)F)o4)cc3F)c3ccccc3)c(=O)c2=O)C1 (stereo partly drawn) [Compound 88, 3-[N-[[5-[5-(difluoromethyl)-1.3.4-oxadiazol-2-yl]-3-fluoro-2-pyridyl]methyl]anilino]-4-[(1S,4S)-5-(1-imino-1-oxo-thiethan-3-yl)-2,5-diazabicyclo[2.2.1]heptan-2-yl]cyclobut-3-en-1,2-dione]
Human recombinant HDAC1
  IC50: > 10 µM
